Assays:
[1] = Stability of TNBG-5602 rat plasma samples on storage and freeze-thaw; format: in vitro ADME; details: stored at −20 and −80 °C
[2] = target: T1, CYP3A4 (Homo sapiens, UniProt P08684); experiment: IC50 assessment using recombinant human CYPs (probe testosterone); format: in vitro ADME; details: recombinant CYP 0.025 μM, testosterone 0.05 mg mL^−1, 37 °C, 30 min, n = 3; read-out: IC50 against CYP3A4
T1 construct: purchased IPHASE
Experimental: (§1) Figure 12 The inhibition curves for TNBG-5602 against cytochrome enzymes (mean ± SD, n = 3). TNBG-5602 (final concentrations of 0, 0.01, 0.1, 1.0, 10.0, and 100 μM) was incubated with recombinant cytochrome P450s (final concentration 0.025 μM) and the specific probe substates (final concentration 0.05 mg mL^−1) with NADPH to initiate the metabolic reaction. The incubations were carried out at 37 °C for 30 min with a total volume of 200 μL. The CYP isoforms tested were 2D6 (dextromethorphan), 2C9 (tolbutamide), and 3A4 (testosterone). […] The IC50 values were calculated using the GraphPad Prism statistical software (Version 8) by nonlinear regression analysis.
(§2) The LC-MS/MS instrument was the same as the system used to determine TNBG-5602. The mobile phase consisted of 0.1% formic acid, aqueous solution (Solvent A), and acetonitrile (Solvent B) at a flow rate of 0.3 mL min^−1. […]
(§3) For IC50 assessment, the inhibition curves were established by nonlinear regression analysis plotting the relative activity (y) versus the logarithm of the TNBG-5602 concentration (x). The inhibition curve and the half-maximal inhibitory concentration of TNBG-5602 against each CYP isoform were analyzed using the GraphPad Prism statistical software (version 8). […]

[3] = test system: cancer cells and tissues; set-up: method as in PMID 31446646; details: oil red O staining; cited from earlier work
[4] = target: T2, CYP2D6 (Homo sapiens, UniProt P10635); experiment: IC50 assessment using recombinant human CYPs (probe dextromethorphan); format: in vitro ADME; details: recombinant CYP 0.025 μM, dextromethorphan 0.05 mg mL^−1, 37 °C, 30 min, n = 3; read-out: IC50 against CYP2D6
T2 construct: purchased IPHASE
Experimental: as §1, §2, §3

T2 sequence (P10635 whole entry): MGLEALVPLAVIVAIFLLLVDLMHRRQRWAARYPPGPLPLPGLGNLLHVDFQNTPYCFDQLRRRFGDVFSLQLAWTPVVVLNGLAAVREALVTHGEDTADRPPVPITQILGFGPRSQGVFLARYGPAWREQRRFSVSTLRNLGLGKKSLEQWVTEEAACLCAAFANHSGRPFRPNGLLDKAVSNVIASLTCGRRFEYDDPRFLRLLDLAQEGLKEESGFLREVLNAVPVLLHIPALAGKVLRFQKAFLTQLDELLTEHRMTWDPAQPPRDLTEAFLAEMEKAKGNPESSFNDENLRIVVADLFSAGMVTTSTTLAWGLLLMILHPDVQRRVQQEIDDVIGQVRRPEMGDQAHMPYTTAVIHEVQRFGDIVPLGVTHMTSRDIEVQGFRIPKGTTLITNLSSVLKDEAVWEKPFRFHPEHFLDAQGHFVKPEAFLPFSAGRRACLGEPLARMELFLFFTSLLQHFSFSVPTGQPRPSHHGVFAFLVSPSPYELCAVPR
T1 sequence (P08684 whole entry): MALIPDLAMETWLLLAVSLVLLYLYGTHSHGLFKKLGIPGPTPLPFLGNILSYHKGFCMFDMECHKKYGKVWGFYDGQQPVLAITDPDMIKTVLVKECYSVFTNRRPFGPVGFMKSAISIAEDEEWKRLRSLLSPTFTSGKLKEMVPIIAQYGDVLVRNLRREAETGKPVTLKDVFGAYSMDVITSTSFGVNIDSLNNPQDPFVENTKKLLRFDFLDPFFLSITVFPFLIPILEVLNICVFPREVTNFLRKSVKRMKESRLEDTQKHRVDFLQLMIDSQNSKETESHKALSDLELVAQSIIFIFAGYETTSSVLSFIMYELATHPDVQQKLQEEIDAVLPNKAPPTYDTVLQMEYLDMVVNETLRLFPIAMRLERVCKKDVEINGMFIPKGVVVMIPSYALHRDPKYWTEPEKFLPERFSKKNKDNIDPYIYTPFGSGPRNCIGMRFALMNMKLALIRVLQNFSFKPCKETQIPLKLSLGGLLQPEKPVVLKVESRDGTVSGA

time plasma samples were stable on storage [1]: at least 90 days
IC50 [2]: 18.7 µM
IC50 [4]: 2.52 µM
SMILES: CN(C)CCN1CC2c3ccccc3CCN2c2nc3ccccc3nc21 (stereo not shown) [TNBG-5602]
lipid accumulation in cancer cells and tissues [3]: selectively cause lipid accumulation
